Reference: paper PMC11477289, “Low-Basicity 5-HT6 Receptor Ligands from the Group of Cyclic Arylguanidine Derivatives and Their Antiproliferative Activity Evaluation” (International Journal of Molecular Sciences, 2024)
Where two headings read alike, the source gives them in different places.

Experiments:
[1] = test system: 1321N1 astrocytoma cell line; assay: Antiproliferative activity (MTS), 1321N1; settings: read-out: IC50 Values 1321N1
5-HT7b receptor = 5-HT7b receptor (Homo sapiens, UniProt P34969); assay: [3H]-5-CT radioligand binding assay, 5-HT7
[2] = test system: MCF7 breast carcinoma cell line; assay: Antiproliferative activity (MTS), MCF7; settings: read-out: IC50 Values MCF7
human 5-HT6 [3] = target: T1, human 5-HT6 (Homo sapiens, UniProt P50406); assay: [3H]-LSD radioligand binding assay, 5-HT6R; settings: HEK293 expressing human 5-HT6R, read-out: 5-HT6 Ki
T1 construct: expressed in transfected cells
Description: Next, the ligands’ affinity for the 5-HT6 receptors was evaluated in the [^3H]-LSD radioligand binding assay. Experiments were performed in a stable HEK293 cell line expressing the human 5-HT6R.
The pellets were stored at −80 °C.

[4] = test system: AsPC-1 pancreas adenocarcinoma cell line; assay: Antiproliferative activity (MTS), AsPC-1; settings: read-out: IC50 Values AsPC-1
human 5-HT6 [5] = target: T1, human 5-HT6; assay: Functional evaluation, cAMP (LANCE Ultra) in HEK293 cells; format: cell-based; settings: cAMP
Description: The supernatant was aspirated, and the cell pellet was resuspended in a stimulation buffer (1 × HBSS, 5 mM HEPES, 0.5 mM IBMX, 0.1% BSA).
The functional properties of compounds were evaluated using the LANCE Ultra cAMP detection kit (PerkinElmer). […] To investigate the antagonist activity, dopamine for D2R was added at a concentration of 10 nM, and for cell lines with 5-HT7R, 5-HT1AR, or 5-HT6R, 5-CT concentrations were adjusted, being, respectively, 10, 100, and 1000 nM, according to the receptor subtype.
For the quantification of cAMP levels, cells (5 µL) were incubated with a 5 µL mixture of necessary compounds for 30 min at room temperature in a 384-well white opaque microtiter plate (PerkinElmer). After incubation, the reaction was stopped, and cells were lysed by the addition of a 10 µL working solution (5 µL Eu-cAMP and 5 µL ULight-anti-cAMP). The assay plate was incubated for 1 h at room temperature. The time-resolved fluorescence resonance energy transfer (TR-FRET) signal was detected by an Infinite M1000 Pro (Tecan, Männedorf, Switzerland) using instrument settings from the LANCE Ultra cAMP detection kit manual.

5-HT1A receptor = target: T2, 5-HT1A receptor (Homo sapiens, UniProt P08908); assay: [3H]-8-OHDPAT radioligand binding assay, 5-HT1A
T2 sequence (P08908 1-422): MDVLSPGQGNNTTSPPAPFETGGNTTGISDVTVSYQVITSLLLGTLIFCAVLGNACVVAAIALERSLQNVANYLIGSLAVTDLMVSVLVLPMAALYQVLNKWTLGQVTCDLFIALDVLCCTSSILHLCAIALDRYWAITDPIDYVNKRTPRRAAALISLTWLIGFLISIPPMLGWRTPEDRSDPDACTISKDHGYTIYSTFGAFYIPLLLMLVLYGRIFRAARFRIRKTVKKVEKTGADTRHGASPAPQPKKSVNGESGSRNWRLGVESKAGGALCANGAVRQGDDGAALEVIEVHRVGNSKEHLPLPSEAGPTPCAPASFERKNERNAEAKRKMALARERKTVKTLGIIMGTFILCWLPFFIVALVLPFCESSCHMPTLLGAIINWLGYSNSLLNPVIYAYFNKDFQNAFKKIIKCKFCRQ

[6] = Metabolic stability in mouse liver microsomes (MLMs); format: in vitro ADME; settings: mouse, mouse liver microsomes, 120 min
Description: The metabolic stability of PR 68, PR 73, and PR 76 were determined in mouse liver microsomes (MLMs).
The metabolic stability of PR 68 was estimated with mouse liver microsomes (MLMs) (Sigma-Aldrich, St. Louis, MO, USA). […] Cold methanol was then added to the reaction mixture to quench the reaction. The precipitated MLMs were centrifuged, and the supernatant was analyzed by LC/MS with a Waters ACQUITY™ TQD system with a TQ detector (Waters, Milford, USA).
(1 picture or pasted object on this page, not shown here)

U-251 glioblastoma cells = assay: Antiproliferative activity (MTS), U-251; settings: read-out: IC50 Values U-251
[7] = test system: LN-229 glioblastoma cell line; assay: Antiproliferative activity (MTS), LN-229; settings: read-out: IC50 Values LN-229
U87MG glioblastoma cells = assay: Antiproliferative activity (MTS), U87MG; settings: 72 h, read-out: IC50 Values U87MG
D2L receptor = D2L receptor (Homo sapiens, UniProt P14416); assay: [3H]-raclopride radioligand binding assay, D2
[8] = Affinity to phospholipids, IAM column (CHI IAM); format: physicochemical; settings: IAM.PC.DD2 column, pH 7.4
From the text: We began with an assay for lipophilicity, affinity for phospholipids (for 40 compounds), and drug binding to human serum albumin (HSA) (for 20 compounds), using chromatographic protocols developed by Valko [46] and implemented in our laboratory [47]. […] These methods allowed the determination of chromatographic hydrophobicity indices (CHIs), binding to HSA (%HSA), and phospholipids (CHIIAM) using a single-gradient elution experiment and comparison to reference substances.

[9] = target: human serum albumin (HSA) (Homo sapiens, UniProt P02768); assay: Binding to HSA, Chiralpak HSA column
From the text: We began with an assay for lipophilicity, affinity for phospholipids (for 40 compounds), and drug binding to human serum albumin (HSA) (for 20 compounds), using chromatographic protocols developed by Valko [46] and implemented in our laboratory. Compounds with the highest affinity for 5-HT6R and those showing the most promising ADMET parameters, including the possibility of BBB penetration, DDI, and lipophilicity, determined in silico in SwissADME [45], were selected for testing. These methods allowed the determination of chromatographic hydrophobicity indices (CHIs), binding to HSA (%HSA), and phospholipids (CHIIAM) using a single-gradient elution experiment and comparison to reference substances.
The use of columns modified with plasma proteins, such as HSA, also allows for the estimation of binding to HSA, which is the most dominant plasma protein (PP). Binding to PP affects drug pharmacokinetics, such as distribution, half-life, and clearance.
The mobile phase flow rate was 1.5 mL/min, and the column was maintained at 30 °C. • Chiralpak® HSA (50 mm × 4 mm; 5 µm with safety guard column; Daicel Chiral Technologies, West Chester, PA, USA), mobile phase A: 50 mM ammonium acetate, mobile phase B: HPLC-grade isopropanol (VWR International, Leuven, Belgium). For the first 15 min, the linear gradient from 0 to 20% isopropanol was applied and then held at 20% isopropanol for 12 min. In the last 5 min of the sequence, the mobile phase mixture received a pure ammonium acetate solution. The column temperature was held at 30 °C, whereas the flow rate was 0.9 mL/min.
The reference substances for the calibration of HSA, C18, and IAM columns were purchased, respectively: acetanilide, butyrophenone, diclofenac, and octanonophenone (Alfa Aesar, Haverhill, MA, USA); acetophenone, benzimidazole, colchicine, indole, indometacin, paracetamol, and theophylline (Sigma-Aldrich, Steinheim, Germany); nicardipine and nizatidine (Cayman Chemical, Ann Arbor, MI, USA); carbamazepine, heptanophenone, hexanophenone, propiophenone, and valerophenone (Acros Organic, Pittsburg, PA, USA). Before chromatographic experiments, solutes were dissolved in dimethyl sulfoxide (Avantor Performance Materials Poland S.A., Gliwice, Poland) to obtain a 200 µg/mL concentration. The detection was performed in the UV region at the wavelength from 190 nm to 300 nm. The injected volume was 5 μL, and each compound was analyzed in triplicate.

[10] = Chromatographic hydrophobicity index on C18 column (lipophilicity); format: physicochemical
PAMPA permeability test = format: in vitro ADME; settings: PBS pH 7.4, 5 h, room temperature
Description: This test allows the determination of the compound’s passive diffusion through biological membranes.
Precoated PAMPA Plate System Gentest was obtained from Corning (Tewksbury, MA, USA). Test compounds and caffeine solutions (200 µM) were prepared in a PBS buffer (pH = 7.4) and then added to the PAMPA plate. The plate was incubated at room temperature for 5 h without agitation. Then, 150 µL was aspirated from both acceptor (A) and donor (D) wells and then diluted with a 150 µL internal standard (IS) solution. The concentrations of the tested compounds in wells A and D were estimated using an LC/MS Waters ACQUITY™ TQD system with a TQ detector (Waters, Milford, CT, USA). The values of Pe were estimated according to the exact formulas provided by Corning and previously described in the literature.
4. Absorption – PAMPA permeability test
*Permeability coefficient. Compound is permeable if Pe≥1.5×10-6 cm/s
**CFN = caffeine, well-permeable control
UPLC of Caffeine solution in PBS (pH=7.4) after 5h of incubation: acceptor well
(above), donor well (below). IS – internal standard.
UPLC of PR 68 solution in PBS (pH=7.4) after 5h of incubation: acceptor well (above),
donor well (below). IS – internal standard. […]

5-HT5A receptor = 5-HT5A receptor (Homo sapiens, UniProt P47898); assay: [3H]-LSD radioligand binding assay, 5-HT5A; settings: read-out: 5-HT5A Ki; [3H]-LSD, HEK293
5-HT5A receptor, sequence (P47898 whole entry): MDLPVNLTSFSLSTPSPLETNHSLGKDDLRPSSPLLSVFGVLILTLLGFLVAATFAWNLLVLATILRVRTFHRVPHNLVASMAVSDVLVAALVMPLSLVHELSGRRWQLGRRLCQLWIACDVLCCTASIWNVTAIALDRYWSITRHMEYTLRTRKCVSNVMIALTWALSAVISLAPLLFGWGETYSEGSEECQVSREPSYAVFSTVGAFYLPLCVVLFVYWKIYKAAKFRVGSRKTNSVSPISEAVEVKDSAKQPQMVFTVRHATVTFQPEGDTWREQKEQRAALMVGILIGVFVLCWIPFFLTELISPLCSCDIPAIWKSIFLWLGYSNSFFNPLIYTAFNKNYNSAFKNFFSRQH

human serum albumin (HSA), sequence (P02768 25-609): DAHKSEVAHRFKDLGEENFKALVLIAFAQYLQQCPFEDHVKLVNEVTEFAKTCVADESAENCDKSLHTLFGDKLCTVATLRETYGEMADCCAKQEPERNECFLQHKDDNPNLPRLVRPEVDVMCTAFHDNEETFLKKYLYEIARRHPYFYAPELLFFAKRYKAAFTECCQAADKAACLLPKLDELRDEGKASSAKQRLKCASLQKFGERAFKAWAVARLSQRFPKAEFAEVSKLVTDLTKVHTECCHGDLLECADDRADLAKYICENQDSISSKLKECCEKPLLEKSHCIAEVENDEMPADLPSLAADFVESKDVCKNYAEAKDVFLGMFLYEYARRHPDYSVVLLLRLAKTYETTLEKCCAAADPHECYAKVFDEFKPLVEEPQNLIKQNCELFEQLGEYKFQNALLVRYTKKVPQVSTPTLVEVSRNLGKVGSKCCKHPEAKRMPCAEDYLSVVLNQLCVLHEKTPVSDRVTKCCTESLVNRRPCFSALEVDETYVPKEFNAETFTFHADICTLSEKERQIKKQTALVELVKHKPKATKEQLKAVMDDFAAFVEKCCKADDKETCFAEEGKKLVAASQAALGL
T1 sequence (P50406 whole entry): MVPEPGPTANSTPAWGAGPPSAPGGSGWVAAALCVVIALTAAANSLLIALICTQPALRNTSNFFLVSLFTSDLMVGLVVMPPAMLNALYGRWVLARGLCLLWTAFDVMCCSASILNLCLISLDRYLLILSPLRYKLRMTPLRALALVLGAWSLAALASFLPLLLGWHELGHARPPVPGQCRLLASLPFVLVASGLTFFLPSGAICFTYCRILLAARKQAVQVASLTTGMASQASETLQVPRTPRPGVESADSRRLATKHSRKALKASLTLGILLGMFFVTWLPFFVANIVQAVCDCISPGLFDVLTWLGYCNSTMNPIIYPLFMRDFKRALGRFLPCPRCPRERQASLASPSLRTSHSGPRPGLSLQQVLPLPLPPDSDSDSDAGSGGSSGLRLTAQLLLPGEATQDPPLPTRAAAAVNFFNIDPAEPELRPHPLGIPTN
5-HT7b receptor, sequence (P34969 1-432 limits assumed): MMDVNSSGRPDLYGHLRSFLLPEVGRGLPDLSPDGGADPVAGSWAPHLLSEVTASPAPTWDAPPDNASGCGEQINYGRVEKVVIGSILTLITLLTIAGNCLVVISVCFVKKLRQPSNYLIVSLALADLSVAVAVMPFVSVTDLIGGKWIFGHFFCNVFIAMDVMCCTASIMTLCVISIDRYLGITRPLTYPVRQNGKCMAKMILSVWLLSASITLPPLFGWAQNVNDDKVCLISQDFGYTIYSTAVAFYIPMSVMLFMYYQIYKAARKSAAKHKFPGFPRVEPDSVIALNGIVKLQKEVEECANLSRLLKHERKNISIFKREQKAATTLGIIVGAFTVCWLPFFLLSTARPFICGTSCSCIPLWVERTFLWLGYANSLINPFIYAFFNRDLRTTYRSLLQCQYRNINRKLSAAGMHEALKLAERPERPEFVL
D2L receptor, sequence (P14416 whole entry): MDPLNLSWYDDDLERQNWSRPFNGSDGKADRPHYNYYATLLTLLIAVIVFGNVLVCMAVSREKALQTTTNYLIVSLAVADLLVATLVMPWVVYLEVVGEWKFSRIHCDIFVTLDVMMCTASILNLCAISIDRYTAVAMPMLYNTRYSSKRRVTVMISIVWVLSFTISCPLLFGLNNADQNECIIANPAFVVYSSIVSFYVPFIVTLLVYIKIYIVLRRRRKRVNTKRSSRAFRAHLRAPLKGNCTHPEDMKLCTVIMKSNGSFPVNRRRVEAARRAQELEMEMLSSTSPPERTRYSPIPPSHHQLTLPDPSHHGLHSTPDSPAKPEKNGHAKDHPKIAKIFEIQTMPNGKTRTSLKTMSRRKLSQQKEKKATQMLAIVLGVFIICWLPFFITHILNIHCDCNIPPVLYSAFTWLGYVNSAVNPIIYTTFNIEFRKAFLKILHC

Molecule | IC50 ([1]; Homo sapiens, 1321-N1, 72 h) | Ki (5-HT7b receptor) | IC50 ([2]; Homo sapiens, MCF7, 72 h) | Ki (human 5-HT6 [3]) | IC50 ([4]; Homo sapiens, ASPC1, 72 h) | Ki (5-HT1A receptor) | melting point | IC50 (U-251 glioblastoma cells; Homo sapiens, U-251, 72 h) | IC50 ([7]; Homo sapiens, LN-229, 72 h) | IC50 (U87MG glioblastoma cells; Homo sapiens, U-87 MG) | Ki (D2L receptor) | CHI IAM [8] | CHI C18 pH 2.6 [10] | CHI C18 pH 7.4 [10] | CHI C18 pH 10.5 [10] | also measured
CC1c2ccccc2N=C(NS(=O)(=O)c2cccc3ccccc23)N1C (centres unmarked) [PR 76, N -(3,4-dimethyl-3,4-dihydroquinazolin-2-yl)naphthalene-1-sulfonamide] | > 25 µM | 35.6 µM | > 25 µM | 0.103 ± 0.025 µM | > 25 µM | 11 µM | 215 to 217 °C | > 25 µM | > 25 µM | > 25 µM | 174 µM |  |  |  |  | EC50 (human 5-HT6 [5]; agonist mode): 0.199 µM; function at 5-HT6R (human 5-HT6 [5]): agonist; remaining at 2 h, 50 µM [6]: 87.4%
CC1OC(NS(=O)(=O)c2cccc3ccccc23)=Nc2ccccc21 (centres unmarked) [PR 77, N -(4-methyl-4H-3,1-benzoxazin-2-yl)naphthalene-1-sulfonamide] | > 25 µM | 56.7 µM | > 25 µM | 0.373 ± 0.092 µM | > 25 µM | 7.54 µM | 229 to 233 °C | > 25 µM | > 25 µM | > 25 µM | 222 µM | 40.8 | 102.5 | 99.9 | 103.2 | %HSA ([9]; Chiralpak HSA column): 95.9%; logKHSA ([9]; Chiralpak HSA column): 1.3
Cn1c(=O)c2c(ncn2C)n(C)c1=O [caffeine, reference compound] |  |  |  |  |  |  |  |  |  |  |  |  |  |  |  | Papp at 5 h, 200 µM (PAMPA permeability test; PAMPA, read-out: PAMPA Pe): 8.23 ×10⁻⁶ cm/s; PAMPA Pe (PAMPA permeability test): 8.23 10^−6 cm/s
N -[6-(4-methylpiperazin-1-yl)-3,4-dihydroquinazolin-2-yl]naphthalene-1-sulfonamide [PR 66] |  |  |  | 11.6 ± 2.66 µM |  |  |  |  |  |  |  | 36.0 | 81.4 | 79.6 | 80.7 | IC50 ([1]; 72 h, MTS): > 25 µM; Ki (5-HT5A receptor): 3.44 µM; IC50 ([2]; 72 h, MTS): > 25 µM; IC50 ([4]; 72 h, MTS): > 25 µM; %HSA [9]: 92.7%; logKHSA [9]: 1.0; IC50 (U-251 glioblastoma cells; 72 h, MTS): > 25 µM; IC50 ([7]; 72 h, MTS): > 25 µM; IC50 (U87MG glioblastoma cells; MTS): > 25 µM
